Measured values: the SangsterLogP compilation

In the case of CNc1cc(N)[n+]([O-])c(N)n1, the logP is reported as -0.49. In the case of CCN(CC)c1cc(N)[n+]([O-])c(N)n1, the logP is reported as 1.16. Work on Nc1cc(NC2CCCCC2)nc(N)[n+]1[O-] yielded a logP of 1.62. Compound C=CCN(CC=C)c1cc(N)[n+]([O-])c(N)n1 has a logP of 1.6. Compound Nc1cc(N2CCOCC2)nc(N)[n+]1[O-] has a logP of 0.36. Work on CN(C)c1cc(N)[n+]([O-])c(N)n1 yielded a logP of 0.16. Compound CCNc1cc(N)[n+]([O-])c(N)n1 has a logP of -0.04. In the case of Nc1cc(N(C2CCCCC2)C2CCCCC2)nc(N)[n+]1[O-], the logP is reported as 3.89. CCCCCCCCCCNc1cc(N)[n+]([O-])c(N)n1 showed a logP of 4.08. Work on CCCN(CCC)c1cc(N)[n+]([O-])c(N)n1 yielded a logP of 2.16. CCCCN(CCCC)c1cc(N)[n+]([O-])c(N)n1 showed a logP of 3.19. In the case of CCCCNc1cc(N)[n+]([O-])c(N)n1, the logP is reported as 1.02. Compound N=c1nc(N)c(N2CCCC2)cn1O has a logP of 0.84.
